# Measured values taken from patent publication US20080227809A1, “Arylalkylamine Vanadium (V) Salts for the Treatment and/or Prevention of Diabetes Mellitus” (GENMEDICA THERAPEUTICS SL, priority 2004, published 2008).
# Entries after “also recorded” stand apart in the source; their conditions may differ.
# Tests used:
# diabetic rats = test: plasma lipids of diabetic rats; assay type: in vivo, rat
# Method: Plasma triglycerides (Biosystems, Barcelona, Spain) and NEFAS (Wako Chemicals, Neuss, Germany) were determined with standard calorimetric methods.
# The concentration of circulating lipids under these conditions was also assayed. […] Untreated diabetic (solid bars, FIG. 9B) or nondiabetic rats (open bars, FIG. 9B) were similarly assayed as controls.
# [1] = system: isolated mouse adipocytes; test: glucose transport (2-DG) in isolated mouse adipocytes; assay type: cell-based; conditions: 100 μM
# Method: Adipose cells from FVB mice were incubated for 45 minutes in basal conditions (Basal) or in the presence of 100 nM insulin (Ins), and different concentrations of hexaquis(benzylammonium) decavanadate (B6V10) in the absence or in the presence of 1 mM semicarbazide (SCZ) and thereafter, 2-DG transport was measured over 5 min.
# db/db mice = test: chronic treatment of obese diabetic db/db mice, glycemia; assay type: in vivo, mouse
# Method: (§1) Chronic in vivo efficacy of B6V10 was evaluated in streptozotocin-induced diabetic rats and in db/db mice. Streptozotocin-induced (45 mg/kg) diabetic rats were subcutaneously treated with hexaquis(benzylammonium) decavanadate (2.5 μmol/kg) (B6V10, solid squares, FIG. 8A) or with decavanadate (2.5 μmol/kg) (V10, open circles, FIG. 8A) delivered subcutaneously by osmotic minipumps implanted in the dorsal region. Diabetic rats were also sham-operated (untreated, solid diamonds, FIG. 8A). […] These experiments were repeated using an oral administration protocol. Streptozotocin-induced (45 mg/kg) diabetic rats were orally treated with hexaquis(benzylammonium) decavanadate (5 μmol/kg from day 0 to day 7 and 10 μmol/kg/day from day 7 to day 17) (B6V10, solid squares, FIG. 8B) or received decavanadate (10 μmol/kg) (V10, open circles, FIG. 8B). Nondiabetic rats were also untreated (solid triangles, FIG. 8B).
# [2] = system: streptozotocin-induced diabetic rats with undetectable circulating insulin
# Method: Male Wistar rats weighting 180-220 g were purchased from Harlan (Interfauna Ibèrica S.A., Spain). Diabetes was induced by a single intraperitoneal injection of a freshly prepared solution of streptozotocin (in some studies the dose was 45 mg/kg body weight and in some others 100 mg/kg body weight dissolved in 50 mM citrate buffer, pH 4.5). Only diabetic animals with glycemia above 300 mg/dl were used. The animals were housed in animal quarters at 22° C. with a 12 h light/12 h dark cycle and were fed ad libitum. All procedures used were approved by the animal ethical committee of the University of Barcelona, Spain.
# Osmotic minipumps delivering B6V10 (2.5 μmol/kg body wt/day) or decavanadate (2.5 μmol/kg body wt/day) were implanted subcutaneously in diabetic rats anaesthetised by ketamine hydrochloride (95 mg/kg) and xylasine (10 mg/kg). […] Glycemia was measured on arterio-venous blood collected from the tail vessels at 09:00 am for two weeks, before the administration of vanadate. Insulin concentrations were determined before and after treatment. In another set of experiments, B6V10 was orally administered at a single dose of 5 μmol/kg/day during the first week and 10 μmol/kg/day during 2 additional weeks by gastric gavage. A control group received the corresponding decavanadate salt in the absence of benzylamine. At the end of the treatment, animals were sacrificed and the liver, fat pad, heart and lung were kept at −80° C. and the plasma at −20° C. until their use for in vitro analysis.
# In glucose tolerance tests and in chronic treatments, circulating glucose concentrations were determined by a rapid glucose analyser (Accutrend® Sensor Comfort, Roche, Basel. Switzerland). Plasma insulin (IRI) concentration was determined by ELISA method using a kit obtained from Crystal Chem. Inc. (Downers Grove, Ill.).
# To this end, rats were made diabetic by the injection of a large dose of streptozotocin (100 mg/kg) that eliminates β-pancreatic insulin content.
# protein kinase B = protein kinase B phosphorylation in isolated rat adipocytes; assay type: cell-based; conditions: 25 μM
# Method: Isolated fat cells were disrupted for total membrane preparation by hypo-osmotic lysis in a 20 mM HES buffer and an antiprotease and antiphosphatase cocktail as reported by Abella et al. (2003, Diabetes 52: 1004-1013). Protein concentrations were determined by the Bradford method (Bradford, 1976, Anal. Biochem. 72: 248-254) with gamma-globulin as protein concentration standard. Immunoprecipitation and immunoblot assays were performed as previously described by Abella et al. (2004, Id.) with the use of a monoclonal antiphosphotyrosine antibody for the immunoprecipitation and an anti-insulin receptor antibody for immunobloting, respectively. SDS-polyacrylamide gel electrophoresis was performed on membrane proteins following conventional procedures. Proteins were transferred to Immobilon and immunoblotting was performed as reported by Castello et al. (1994, J. Biol. Chem. 269: 5905-5912).
# The mechanism of action of B6V10 was investigated in isolated rat adipocytes. Adipose cells from Wistar rats were incubated for different times in the presence of 25 μM hexaquis(benzylammonium) decavanadate (B6V10). Cells were also incubated in the presence of insulin (100 nM, 45 min), decavanadate (25 μM, 45 min) or semicarbazide (1 mM, 45 min). Subsequently, 2-deoxyglucose uptake (results shown in FIG. 7A), tyrosine phosphorylation of insulin receptor (FIG. 7B), phospho-Thr^308-protein kinase B (FIG. 7C) and phospho-Ser^473-protein kinase B (FIG. 7D) was measured. […] The phosphorylation of protein kinase B induced by B6V10 was parallel to activation of glucose transport (FIGS. 7C and 7D).
# The effects of incubation with semicarbazide or phosphatidylinositol 3-kinase inhibitors were also investigated. Adipose cells were incubated with B6V10 (25 μM, 45 min) in the absence or presence of wortmannin (2 μM, 45 min), LY294002 (10 μM, 45 min) or semicarbazide (1 mM, 45 min) and thereafter 2-deoxyglucose uptake was determined during 5 min. Activation of protein kinase B phosphorylation induced by B6V10 was blocked by semicarbazide and it was not observed by decavanadate. In addition, phosphatidylinositol 3-kinase inhibitors wortmannin and LY294002 blocked B6V10-induced glucose transport (FIG. 7E).
# [3] = system: streptozotocin-induced diabetic rats; test: chronic oral treatment, glycemia of streptozotocin (45 mg/kg) diabetic rats; assay type: in vivo, rat
# Method: The effect of the oral administration of hexaquis(benzylammonium) decavanadate on glycemia from diabetic rats was also studied. Diabetes was induced in rats by intravenous administration of streptozotocin, and subsequently, a hexaquis(benzylammonium) decavanadate or sodium decavanadate unique dose was administered to the rats. […] After seven days of treatment, the dose was increased at 10 μmol/kg/day which was maintained for an additional ten days. […] Thus, glycemia in sodium decavanadate treated rats was approximately 450 mg/dl and glycemia of hexaquis(benzylammonium) decavanadate treated rats was approximately 250 mg/dl.
# as §1
# adipocyte lipolysis = test: adipocyte lipolysis; assay type: cell-based
substance,measurement,setting,value
hexaquis(benzylammonium) decavanadate [Example B6V10],plasma concentration of cholesterol,diabetic rats,normalized
same,plasma concentration of free fatty acids,diabetic rats,normalized
same,plasma concentration of triglycerides,diabetic rats,normalized
same,stimulation of glucose transport (increase),[1],93%
same,effect on glycemia,db/db mice,ameliorated glycemia
same,plasma glucose,"[2]; after 28 days, 2.5 μmol/kg",reduced
same,plasma insulin,"[2]; after 28 days, 2.5 μmol/kg",without any observable change
same,body weight or organ weights,"[2]; rat, in vivo",did not affect
same,protein kinase B phosphorylation,protein kinase B,rapidly stimulated
same,time after addition at which protein kinase B phosphorylation was detectable,protein kinase B,2.5 min
same,protein kinase B phosphorylation in the presence of semicarbazide,"protein kinase B; semicarbazide 1 mM, 45 min",blocked
same,effect on glycemia,"[3]; daily oral administration, 17 days",significant correction of hyperglycemia; also recorded: significant lowering in blood glucose levels; also recorded: ameliorated hyperglycemia
same,time of treatment after which decrease of hyperglycemia was detected,[3]; oral 5 μmol/kg/day,two
same,effect on hyperglycemia,[3]; oral 5 μmol/kg/day for seven days,moderate decrease of hyperglycemia
same,effect of dosage increase on glycemia,[3]; oral 10 μmol/kg/day from day 7 for additional ten days,additional decrease in glycemia
same,glycemia,"[3]; oral, after dosage increase to 10 μmol/kg/day",approximately 250 mg/dl
same,adipocyte lipolysis,adipocyte lipolysis,inhibited
